# Patent US11427548B2 (Arvinas Operations, Inc., priority 2015, dated 2022)
# Read-outs that look alike come from different tables or passages of the source.
# Molecular target: T1, Androgen Receptor (Homo sapiens, UniProt P10275)
# T1 construct: endogenous in cells; host or cells: VCaP cells
# T1 sequence (P10275 1-920): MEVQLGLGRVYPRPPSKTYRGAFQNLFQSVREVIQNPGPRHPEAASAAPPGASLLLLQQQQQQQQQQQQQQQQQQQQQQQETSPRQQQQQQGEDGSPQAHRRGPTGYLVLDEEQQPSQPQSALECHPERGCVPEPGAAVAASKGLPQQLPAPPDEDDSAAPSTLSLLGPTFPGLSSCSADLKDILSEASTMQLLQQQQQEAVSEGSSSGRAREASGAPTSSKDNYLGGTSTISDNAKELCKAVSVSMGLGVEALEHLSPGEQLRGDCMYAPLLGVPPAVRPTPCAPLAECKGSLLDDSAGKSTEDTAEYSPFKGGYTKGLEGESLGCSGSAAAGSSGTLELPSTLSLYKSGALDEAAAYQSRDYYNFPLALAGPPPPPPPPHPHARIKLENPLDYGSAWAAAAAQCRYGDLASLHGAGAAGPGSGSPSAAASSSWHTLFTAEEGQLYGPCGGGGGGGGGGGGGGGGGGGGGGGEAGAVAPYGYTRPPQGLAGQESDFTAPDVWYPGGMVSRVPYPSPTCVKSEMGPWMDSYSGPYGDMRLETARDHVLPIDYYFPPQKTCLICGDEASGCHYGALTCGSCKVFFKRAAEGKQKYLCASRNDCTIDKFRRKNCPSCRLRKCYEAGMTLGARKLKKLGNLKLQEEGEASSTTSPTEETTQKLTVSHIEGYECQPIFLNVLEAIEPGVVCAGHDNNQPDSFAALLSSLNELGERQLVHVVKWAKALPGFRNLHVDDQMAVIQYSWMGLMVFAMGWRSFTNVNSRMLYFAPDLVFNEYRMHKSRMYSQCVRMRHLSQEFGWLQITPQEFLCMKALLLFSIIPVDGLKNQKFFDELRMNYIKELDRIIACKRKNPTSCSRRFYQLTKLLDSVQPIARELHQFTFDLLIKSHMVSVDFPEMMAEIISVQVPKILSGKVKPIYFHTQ
# Test: Androgen Receptor ELISA assay (PathScan AR ELISA) in VCaP cells: AR degradation, Dmax and DC50
# Format: cell-based
# How it was run: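 VCaP cells, 30,000/well, grown ≥3 days in phenol red-free RPMI with 5% charcoal-stripped FBS; compound added in 0.1% DMSO with 0.1 nM R1881, 7 half-log doses, 24 h. Lysate AR quantified by PathScan sandwich ELISA, HRP/TMB read at 450 nm, giving DC50 and Dmax.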
# [1] = VCaP cells; Table 36; read-out: VCaP DC50
# [2] = VCaP, VCaP cells; Table 36; read-out: VCaP Dmax (%)
DC50 [1],"Dmax (VCaP, read-out: VCaP Dmax (%), VCaP cells; Table 36)",Dmax [2],SMILES,"Dmax (VCaP, read-out: VCaP Dmax (%))",DC50 (read-out: VCaP DC50; VCaP cells; Table 36)
> 501 nM,< 25%,,"Cc1ncsc1-c1ccc([C@H](C)NC(=O)[C@@H]2C[C@@H](O)CN2C(=O)[C@@H](NC(=O)CN2CCN(CCOCCN3CCN(c4ccc(C(=O)N[C@H]5C(C)(C)[C@H](Oc6ccc(C#N)c(Cl)c6)C5(C)C)cn4)CC3)CC2)C(C)(C)C)cc1 [Example 805, N-((1r,3r)-3-(3-chloro-4-cyanophenoxy)-2,2,4,4-tetramethylcyclobutyl)-6-(4-(2-(2-(4-(2-(((S)-1-((2S,4R)-4-hydroxy-2-(((S)-1-(4-(4-methylthiazol-5-yl)phenyl)ethyl)carbamoyl)pyrrolidin-1-yl)-3,3-dimethyl-1-oxobutan-2-yl)amino)-2-oxoethyl)piperazin-1-yl)ethoxy)ethyl)piperazin-1-yl)nicotinamide]",,
< 50 nM,,> 71%,"Cc1ncsc1-c1ccc([C@H](C)NC(=O)C2C[C@@H](O)CN2C(=O)C(NC(=O)CN2CCN(CCCCc3ccc(C(=O)N[C@H]4C(C)(C)[C@H](Oc5ccc(C#N)c(Cl)c5)C4(C)C)cc3)CC2)C(C)(C)C)cc1 (stereo partly drawn) [Example 806, (2S,4R)-1-((S)-2-(2-(4-(4-(4-(((1r,3r)-3-(3-chloro-4-cyanophenoxy)-2,2,4,4-tetramethylcyclobutyl)carbamoyl)phenyl)butyl)piperazin-1-yl)acetamido)-3,3-dimethylbutanoyl)-4-hydroxy-N-((S)-1-(4-(4-methylthiazol-5-yl)phenyl)ethyl)pyrrolidine-2-carboxamide]",,
< 50 nM,,,"Cc1ncsc1-c1ccc([C@H](C)NC(=O)C2C[C@@H](O)CN2C(=O)[C@@H](NC(=O)CN2C[C@@H]3C[C@H]2CN3CCCc2ccc(C(=O)N[C@H]3C(C)(C)[C@H](Oc4ccc(C#N)c(Cl)c4)C3(C)C)cc2)C(C)(C)C)cc1 (stereo partly drawn) [Example 807, (2S,4R)-1-((S)-2-(2-((1R,4R)-5-(3-(4-(((1r,3R)-3-(3-chloro-4-cyanophenoxy)-2,2,4,4-tetramethylcyclobutyl)carbamoyl)phenyl)propyl)-2,5-diazabicyclo[2.2.1]heptan-2-yl)acetamido)-3,3-dimethylbutanoyl)-4-hydroxy-N-((S)-1-(4-(4-methylthiazol-5-yl)phenyl)ethyl)pyrrolidine-2-carboxamide]",,
,,,"Cc1ncsc1-c1ccc([C@H](C)NC(=O)[C@@H]2C[C@@H](O)CN2C(=O)[C@@H](NC(=O)CN2CC3CCC(C2)N3CCCc2ccc(C(=O)NC3C(C)(C)C(Oc4ccc(C#N)c(Cl)c4)C3(C)C)cc2)C(C)(C)C)cc1 (stereo partly drawn) [Example 808, (2S,4R)-1-((2S)-2-(2-(8-(3-(4-(((1r,3r)-3-(3-chloro-4-cyanophenoxy)-2,2,4,4-tetramethylcyclobutyl)carbamoyl)phenyl)propyl)-3,8-diazabicyclo[3.2.1]octan-3-yl)acetamido)-3,3-dimethylbutanoyl)-4-hydroxy-N-((S)-1-(4-(4-methylthiazol-5-yl)phenyl)ethyl)pyrrolidine-2-carboxamide]",26 to 50%,< 50 nM
< 50 nM,,> 71%,"Cc1ncsc1-c1ccc([C@H](CO)NC(=O)[C@@H]2C[C@@H](O)CN2C(=O)[C@@H](NC(=O)COCCN2CCN(c3ccc(C(=O)N[C@H]4C(C)(C)[C@H](Oc5ccc(C#N)c(Cl)c5)C4(C)C)cn3)CC2)C(C)(C)C)cc1 [Example 812, N-((1r,3r)-3-(3-chloro-4-cyanophenoxy)-2,2,4,4-tetramethylcyclobutyl)-6-(4-(2-(2-(((S)-1-((2S, 4R)-4-hydroxy-2-(((R)-2-hydroxy-1-(4-(4-methylthiazol-5-yl)phenyl)ethyl)carbamoyl)pyrrolidin-1-yl)-3,3-dimethyl-1-oxobutan-2-yl)amino)-2-oxoethoxy)ethyl)piperazin-1-yl) nicotinamide]",,
< 50 nM,,> 71%,"Cc1ncsc1-c1ccc([C@H](C)NC(=O)C2C[C@@H](O)CN2C(=O)[C@@H](NC(=O)COCCN2C[C@@H](C)N(c3ccc(C(=O)N[C@H]4C(C)(C)[C@H](Oc5ccc(C#N)c(Cl)c5)C4(C)C)cn3)[C@@H](C)C2)C(C)(C)C)cc1 (stereo partly drawn) [Example 813, N-((1r,3R)-3-(3-chloro-4-cyanophenoxy)-2,2,4,4-tetramethylcyclobutyl)-6-((2S,6R)-4-(2-(2-(((2S)-1-((4R)-4-hydroxy-2-(((S)-1-(4-(4-methylthiazol-5-yl)phenyl)ethyl)carbamoyl)pyrrolidin-1-yl)-3,3-dimethyl-1-oxobutan-2-yl)amino)-2-oxoethoxy)ethyl)-2,6-dimethylpiperazin-1-yl)nicotinamide]",,
< 50 nM,,26 to 50%,"Cc1ncsc1-c1ccc([C@H](C)NC(=O)C2C[C@@H](O)CN2C(=O)C(NC(=O)CN2CC3(CC(N4CCN(c5ccc(C(=O)NC6C(C)(C)C(Oc7ccc(C#N)c(Cl)c7)C6(C)C)cn5)CC4)C3)C2)C(C)(C)C)cc1 (stereo partly drawn) [Example 814, N-((1r,3r)-3-(3-chloro-4-cyanophenoxy)-2,2,4,4-tetramethylcyclobutyl)-6-(4-(2-(2-(((S)-1-((2S, 4R)-4-hydroxy-2-(((S)-1-(4-(4-methylthiazol-5-yl)phenyl)ethyl)carbamoyl)pyrrolidin-1-yl)-3,3-dimethyl-1-oxobutan-2-yl)amino)-2-oxoethyl)-2-azaspiro [3.3]heptan-6-yl)piperazin-1-yl) nicotinamide]",,
< 50 nM,,51 to 70%,"Cc1ncsc1-c1ccc([C@H](C)NC(=O)C2C[C@@H](O)CN2C(=O)C(NC(=O)COC(C)(C)CN2CCN(c3ccc(C(=O)NC4C(C)(C)C(Oc5ccc(C#N)c(Cl)c5)C4(C)C)cn3)CC2)C(C)(C)C)cc1 (stereo partly drawn) [Example 815, N-((1r,3r)-3-(3-chloro-4-cyanophenoxy)-2,2,4,4-tetramethylcyclobutyl)-6-(4-(2-(2-(((S)-1-((2S, 4R)-4-hydroxy-2-(((S)-1-(4-(4-methylthiazol-5-yl)phenyl)ethyl)carbamoyl)pyrrolidin-1-yl)-3,3-dimethyl-1-oxobutan-2-yl)amino)-2-oxoethoxy)-2-methylpropyl)piperazin-1-yl) nicotinamide]",,

SMILES,DC50 [1],"Dmax (VCaP, read-out: VCaP Dmax (%), VCaP cells; Table 36)",Dmax [2],"Dmax (VCaP, read-out: VCaP Dmax (%))",DC50 (read-out: VCaP DC50; VCaP cells; Table 36)
"Cc1ncsc1-c1ccc([C@H](C)NC(=O)[C@@H]2C[C@@H](O)CN2C(=O)[C@@H](NC(=O)CN2CCN(C3CC4(C3)CN(c3ccc(C(=O)N[C@H]5C(C)(C)[C@H](Oc6ccc(C#N)c(Cl)c6)C5(C)C)cn3)C4)CC2)C(C)(C)C)cc1 [Example 809, N-((1r,3r)-3-(3-chloro-4-cyanophenoxy)-2,2,4,4-tetramethylcyclobutyl)-6-(6-(4-(2-(((S)-1-((2S, 4R)-4-hydroxy-2-(((S)-1-(4-(4-methylthiazol-5-yl)phenyl)ethyl)carbamoyl)pyrrolidin-1-yl)-3,3-dimethyl-1-oxobutan-2-yl)amino)-2-oxoethyl)piperazin-1-yl)-2-azaspiro[3.3]heptan-2-yl)n icotinamide]",< 50 nM,,,> 71%,
"Cc1ncsc1-c1ccc([C@H](C)NC(=O)C2C[C@@H](O)CN2C(=O)C(c2cc(OCCN(C)[C@H](C(=O)NC(C(=O)N3CCN(c4ccc(C(=O)NC5C(C)(C)C(Oc6ccc(C#N)c(Cl)c6)C5(C)C)cc4)CC3)C(C)C)C(C)C)no2)C(C)C)cc1 (stereo partly drawn) [Example 810, (2S,4R)-1-(2-(3-(2-(((S)-1-(((S)-1-(4-(4-(((1r,3S)-3-(3-chloro-4-cyanophenoxy)-2,2,4,4-tetramethylcyclobutyl)carbamoyl)phenyl)piperazin-1-yl)-3-methyl-1-oxobutan-2-yl)amino)-3-methyl-1-oxobutan-2-yl) (methyl)amino)ethoxy)isoxazol-5-yl)-3-methylbutanoyl)-4-hydroxy-N-((S)-1-(4-(4-methylthiazol-5-yl)phenyl)ethyl) pyrrolidine-2-carboxamide]",< 50 nM,,,> 71%,
"Cc1ncsc1-c1ccc([C@H](C)NC(=O)[C@@H]2C[C@@H](O)CN2C(=O)[C@@H](NC(=O)CN2C[C@H](C)N(CCCc3ccc(C(=O)N[C@H]4C(C)(C)[C@H](Oc5ccc(C#N)c(Cl)c5)C4(C)C)cc3)C[C@H]2C)C(C)(C)C)cc1 [Example 816, (2S,4R)-1-((S)-2-(2-((2R,5S)-4-(3-(4-(((1r, 3S)-3-(3-chloro-4-cyanophenoxy)-2,2,4,4-tetramethylcyclobutyl)carbamoyl)phenyl)propyl)-2,5-dimethylpiperazin-1-yl)acetamido)-3,3-dimethylbutanoyl)-4-hydroxy-N-((S)-1-(4-(4-methylthiazol-5-yl)phenyl)ethyl) pyrrolidine-2-carboxamide]",< 50 nM,,,> 71%,
